Test results reported in ChEMBL document CHEMBL1128638, “Probing the hydrophobic pocket of the active site of aromatase with 4-phenoxy-7 alpha-(phenylthio)-4-androstene-3,17-dione” (J Med Chem, 1995).
pIC50: −log10 of the molar value.

Target: T1, Aromatase (Homo sapiens, UniProt P11511)
T1 sequence (P11511 whole entry): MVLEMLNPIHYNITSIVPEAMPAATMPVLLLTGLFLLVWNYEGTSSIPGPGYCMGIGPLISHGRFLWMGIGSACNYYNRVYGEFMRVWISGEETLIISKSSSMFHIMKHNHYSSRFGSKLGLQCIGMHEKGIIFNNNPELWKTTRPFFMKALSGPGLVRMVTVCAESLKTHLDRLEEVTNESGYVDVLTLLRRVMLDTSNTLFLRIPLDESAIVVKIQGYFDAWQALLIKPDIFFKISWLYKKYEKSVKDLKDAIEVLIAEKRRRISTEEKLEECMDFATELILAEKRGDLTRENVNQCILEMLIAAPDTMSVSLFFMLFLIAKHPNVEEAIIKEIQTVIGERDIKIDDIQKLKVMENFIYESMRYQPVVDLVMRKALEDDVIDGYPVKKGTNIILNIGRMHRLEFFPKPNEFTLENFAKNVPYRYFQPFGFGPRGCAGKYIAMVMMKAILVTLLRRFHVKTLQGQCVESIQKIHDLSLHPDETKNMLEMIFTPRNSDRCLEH
Test: Inhibition of Cytochrome P450 19A1

| Structure (SMILES) | pIC50 |
| --- | --- |
| C[C@]12CCC(=O)C=C1C[C@@H](Sc1ccccc1)[C@@H]1[C@@H]2CC[C@]2(C)C(=O)CC[C@@H]12 | 6.19 |
| CC12CCC3C(CCC4=C(Oc5ccccc5)C(=O)CCC43C)C1CCC2=O (centres undefined) | 6.28 |
| CC12CCC3C(C1CCC2=O)[C@H](Sc1ccccc1)CC1=C(Oc2ccccc2)C(=O)CCC13C (some centres undefined) | 5.78 |
| CC12CCC3C(CCC4=C(Sc5ccccc5)C(=O)CCC43C)C1CCC2=O (centres undefined) | 6.72 |
